According to patent US7994140B2, “Classes of compounds that interact with GPCRs” (Alchemia Limited, priority 2002, dated 2011):

These compounds were tested against T1, MC4 (Homo sapiens, UniProt P32245) (assay: GPCR radioligand binding (RLB) assay, melanocortin MC4, [125I]NDP-αMSH). Conditions: 10 micromolar compound; recombinant human receptor membranes (HEK 293).
T1 construct: purchased Perkin Elmer BioSignal; host or cells: HEK 293
Method in brief: (§1)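 Competition binding against radioligand ([125I]NDP-αMSH for MC4, [125I]SST-14 for SST5) on membranes of HEK 293 cells carrying the human receptor; buffer and incubation time optimized per receptor. Filtration through 0.5% PEI-treated glass fiber, washing, then scintillation counting.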

T1 sequence (P32245 whole entry): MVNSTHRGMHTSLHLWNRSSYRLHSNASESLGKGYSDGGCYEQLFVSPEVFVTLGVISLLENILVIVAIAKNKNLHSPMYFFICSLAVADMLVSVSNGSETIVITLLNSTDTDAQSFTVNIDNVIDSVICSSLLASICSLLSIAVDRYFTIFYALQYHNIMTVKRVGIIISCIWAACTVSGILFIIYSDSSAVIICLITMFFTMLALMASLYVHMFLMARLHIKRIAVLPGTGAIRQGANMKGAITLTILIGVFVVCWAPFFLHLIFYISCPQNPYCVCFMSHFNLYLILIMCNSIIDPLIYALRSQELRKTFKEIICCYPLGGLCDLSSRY

Compound	MC4 inhibition at 10 micromolar
CSC1OC(COCc2ccc(-c3ccccc3)cc2)C(O)C(OCc2ccc3ccccc3c2)C1NC(=O)CCCNC(=N)N (stereo not drawn) [Compound 208]	+ (Indicates inhibition greater than . . . 50%)
COC1C(O)C(COCc2ccc3ccccc3c2)OC(OCc2ccc3ccccc3c2)C1NC(=O)CCCN (stereo not drawn) [Compound 73]	+ (Indicates inhibition greater than . . . 50%)
CSC1O[C@H](COCc2cccc(N)c2)[C@@H](O)[C@H](OCc2ccc(Cl)cc2)[C@H]1NC(=O)c1ccccc1 (stereo partly drawn) [Compound 338]	+ (Indicates inhibition greater than . . . 50%)
CSC1OC(COCc2ccc3ccccc3c2)C(O)C(OCc2ccccc2)C1NC(=O)CN (stereo not drawn) [Compound 137]	+ (Indicates inhibition greater than . . . 50%)
CSC1OC(COCc2ccccc2)C(O)C(OCc2ccccc2)C1NC(=O)CNC(=N)N (stereo not drawn) [Compound 120]	+ (Indicates inhibition greater than . . . 50%)
CSC1OC(COCc2ccccc2)C(O)C(OCc2ccc(-c3ccccc3)cc2)C1NC(=O)CCCN (stereo not drawn) [Compound 171]	+ (Indicates inhibition greater than . . . 50%)
CSC1OC(COCc2ccc(Cl)cc2)C(O)C(OCc2ccccc2)C1NC(=O)CCCNC(=N)N (stereo not drawn) [Compound 130]	+ (Indicates inhibition greater than . . . 50%)
CSC1OC(COCc2ccc(-c3ccccc3)cc2)C(O)C(OCc2ccc3ccccc3c2)C1NC(=O)CNC(=N)N (stereo not drawn) [Compound 204]	+ (Indicates inhibition greater than . . . 50%)
CSC1OC(COCc2ccccc2)C(O)C(OCc2ccc3ccccc3c2)C1NC(=O)CCCN (stereo not drawn) [Compound 195]	+ (Indicates inhibition greater than . . . 50%)
CSC1OC(COCc2ccc(-c3ccccc3)cc2)C(O)C(OCc2ccc3ccccc3c2)C1NC(=O)CCN (stereo not drawn) [Compound 205]	+ (Indicates inhibition greater than . . . 50%)
COC[C@H]1OC(OCc2ccc(Cl)cc2)[C@H](NC(=O)CCCNC(=N)N)[C@@H](OCc2ccc(-c3ccccc3)cc2)[C@@H]1O (stereo partly drawn) [Compound 45]	+ (Indicates inhibition greater than . . . 50%)
CSC1OC(COCc2ccc(Cl)cc2)C(O)C(OCc2ccc(Cl)cc2)C1NC(=O)CCNC(=N)N (stereo not drawn) [Compound 152]	+ (Indicates inhibition greater than . . . 50%)
CSC1OC(COCc2ccc(Cl)cc2)C(O)C(OCc2ccc3ccccc3c2)C1NC(=O)CNC(=N)N (stereo not drawn) [Compound 198]	+ (Indicates inhibition greater than . . . 50%)
CSC1OC(COCc2cccc(N)c2)C(O)C(OCc2ccc(Cl)cc2)C1NC(=O)c1ccccc1 (stereo not drawn) [Compound 331]	+ (Indicates inhibition greater than . . . 50%)
COC[C@H]1OC(OCc2ccc(-c3ccccc3)cc2)[C@H](NC(=O)CCCNC(=N)N)[C@@H](OCc2ccc(Cl)cc2)[C@@H]1O (stereo partly drawn) [Compound 34]	+ (Indicates inhibition greater than . . . 50%)

Same assay, conditions: 10 micromolar; Example Library 4

Compound	MC4 inhibition at 10 micromolar
COCC1OC(OCCc2ccccc2)C(NC(=O)CN)C(OCc2ccc(-c3ccccc3)cc2)C1O (stereo not drawn) [Compound 272]	+ (Indicates inhibition greater than . . . 50%)
COCC1OC(OCc2ccccc2)C(NC(=O)CCN)C(OCc2ccc3ccccc3c2)C1O (stereo not drawn) [Compound 233]	+ (Indicates inhibition greater than . . . 50%)
COCC1OC(OCc2ccccc2)C(NC(=O)CNC(=N)N)C(OCc2ccc3ccccc3c2)C1O (stereo not drawn) [Compound 232]	+ (Indicates inhibition greater than . . . 50%)
COCC1OC(OCc2ccccc2)C(NC(=O)CCCN)C(OCc2ccc(-c3ccccc3)cc2)C1O (stereo not drawn) [Compound 229]	+ (Indicates inhibition greater than . . . 50%)
COCC1OC(OCc2ccccc2)C(NC(=O)CCN)C(OCc2ccc(Cl)cc2)C1O (stereo not drawn) [Compound 221]	+ (Indicates inhibition greater than . . . 50%)
COCC1OC(OCCc2ccccc2)C(NC(=O)CCCNC(=N)N)C(OCc2ccc3ccccc3c2)C1O (stereo not drawn) [Compound 283]	+ (Indicates inhibition greater than . . . 50%)
COCC1OC(OCc2ccccc2)C(NC(=O)CN)C(OCc2ccc(-c3ccccc3)cc2)C1O (stereo not drawn) [Compound 225]	+ (Indicates inhibition greater than . . . 50%)
COCC1OC(OCc2ccccc2)C(NC(=O)CN)C(OCc2ccc(Cl)cc2)C1O (stereo not drawn) [Compound 219]	+ (Indicates inhibition greater than . . . 50%)
COCC1OC(OCCc2ccccc2)C(NC(=O)CCCN)C(OCc2ccc(-c3ccccc3)cc2)C1O (stereo not drawn) [Compound 276]	+ (Indicates inhibition greater than . . . 50%)
COCC1OC(OCc2ccc3ccccc3c2)C(NC(=O)CNC(=N)N)C(OCc2ccc(-c3ccccc3)cc2)C1O (stereo not drawn) [Compound 297]	+ (Indicates inhibition greater than . . . 50%)
COCC1OC(OCc2ccccc2)C(NC(=O)CCNC(=N)N)C(OCc2ccc3ccccc3c2)C1O (stereo not drawn) [Compound 234]	+ (Indicates inhibition greater than . . . 50%)
COCC1OC(OCCc2ccccc2)C(NC(=O)CNC(=N)N)C(OCc2ccc(Cl)cc2)C1O (stereo not drawn) [Compound 267]	+ (Indicates inhibition greater than . . . 50%)

What follows are compounds tested against T2, SST5 (Homo sapiens, UniProt P35346) (assay: GPCR radioligand binding (RLB) assay, somatostatin SST5, [125I]SST-14). Conditions: 10 micromolar compound; Example Library 8.
T2 construct: purchased Perkin Elmer BioSignal; host or cells: HEK 293
T2 sequence (P35346 whole entry): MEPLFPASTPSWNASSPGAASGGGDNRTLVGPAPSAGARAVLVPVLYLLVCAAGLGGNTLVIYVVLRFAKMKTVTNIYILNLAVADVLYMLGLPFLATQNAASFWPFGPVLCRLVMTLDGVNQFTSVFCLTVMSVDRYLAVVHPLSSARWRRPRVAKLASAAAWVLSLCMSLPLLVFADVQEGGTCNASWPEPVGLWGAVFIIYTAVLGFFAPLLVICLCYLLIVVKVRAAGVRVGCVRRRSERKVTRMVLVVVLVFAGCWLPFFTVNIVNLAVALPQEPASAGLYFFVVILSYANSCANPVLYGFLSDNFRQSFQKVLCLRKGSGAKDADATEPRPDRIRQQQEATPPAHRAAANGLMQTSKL
Method in brief: as §1

Compound	SSTS inhibition at 10 micromolar
CSC1O[C@H](COCc2cccc(N)c2)[C@@H](O)[C@H](OCc2ccc(Cl)cc2)[C@H]1NC(=O)c1ccccc1 (stereo partly drawn) [Compound 338]	+ (Indicates inhibition greater than . . . 50%)

Same assay, conditions: 10 micromolar compound; recombinant human receptor membranes (HEK 293)

Compound	SST5 inhibition at 10 micromolar
CSC1OC(COCc2ccc(-c3ccccc3)cc2)C(O)C(OCc2ccc3ccccc3c2)C1NC(=O)CCCNC(=N)N (stereo not drawn) [Compound 208]	+ (Indicates inhibition greater than . . . 50%)
COC1C(O)C(COCc2ccc3ccccc3c2)OC(OCc2ccc3ccccc3c2)C1NC(=O)CCCN (stereo not drawn) [Compound 73]	+ (Indicates inhibition greater than . . . 50%)
CSC1OC(COCc2ccc3ccccc3c2)C(O)C(OCc2ccccc2)C1NC(=O)CN (stereo not drawn) [Compound 137]	+ (Indicates inhibition greater than . . . 50%)
CSC1OC(COCc2ccccc2)C(O)C(OCc2ccccc2)C1NC(=O)CNC(=N)N (stereo not drawn) [Compound 120]	+ (Indicates inhibition greater than . . . 50%)
CSC1OC(COCc2ccccc2)C(O)C(OCc2ccc(-c3ccccc3)cc2)C1NC(=O)CCCN (stereo not drawn) [Compound 171]	+ (Indicates inhibition greater than . . . 50%)
CSC1OC(COCc2ccc(Cl)cc2)C(O)C(OCc2ccccc2)C1NC(=O)CCCNC(=N)N (stereo not drawn) [Compound 130]	+ (Indicates inhibition greater than . . . 50%)
CSC1OC(COCc2ccc(-c3ccccc3)cc2)C(O)C(OCc2ccc3ccccc3c2)C1NC(=O)CNC(=N)N (stereo not drawn) [Compound 204]	+ (Indicates inhibition greater than . . . 50%)
CSC1OC(COCc2ccccc2)C(O)C(OCc2ccc3ccccc3c2)C1NC(=O)CCCN (stereo not drawn) [Compound 195]	+ (Indicates inhibition greater than . . . 50%)
CSC1OC(COCc2ccc(-c3ccccc3)cc2)C(O)C(OCc2ccc3ccccc3c2)C1NC(=O)CCN (stereo not drawn) [Compound 205]	+ (Indicates inhibition greater than . . . 50%)
COC[C@H]1OC(OCc2ccc(Cl)cc2)[C@H](NC(=O)CCCNC(=N)N)[C@@H](OCc2ccc(-c3ccccc3)cc2)[C@@H]1O (stereo partly drawn) [Compound 45]	+ (Indicates inhibition greater than . . . 50%)
CSC1OC(COCc2ccc(Cl)cc2)C(O)C(OCc2ccc(Cl)cc2)C1NC(=O)CCNC(=N)N (stereo not drawn) [Compound 152]	+ (Indicates inhibition greater than . . . 50%)
CSC1OC(COCc2ccc(Cl)cc2)C(O)C(OCc2ccc3ccccc3c2)C1NC(=O)CNC(=N)N (stereo not drawn) [Compound 198]	+ (Indicates inhibition greater than . . . 50%)
CSC1OC(COCc2cccc(N)c2)C(O)C(OCc2ccc(Cl)cc2)C1NC(=O)c1ccccc1 (stereo not drawn) [Compound 331]	+ (Indicates inhibition greater than . . . 50%)
COC[C@H]1OC(OCc2ccc(-c3ccccc3)cc2)[C@H](NC(=O)CCCNC(=N)N)[C@@H](OCc2ccc(Cl)cc2)[C@@H]1O (stereo partly drawn) [Compound 34]	+ (Indicates inhibition greater than . . . 50%)

Same assay, conditions: 10 micromolar; Example Library 4

Compound	SSTS inhibition at 10 micromolar
COCC1OC(OCCc2ccccc2)C(NC(=O)CN)C(OCc2ccc(-c3ccccc3)cc2)C1O (stereo not drawn) [Compound 272]	+ (Indicates inhibition greater than . . . 50%)
COCC1OC(OCc2ccccc2)C(NC(=O)CCN)C(OCc2ccc3ccccc3c2)C1O (stereo not drawn) [Compound 233]	+ (Indicates inhibition greater than . . . 50%)
COCC1OC(OCc2ccccc2)C(NC(=O)CNC(=N)N)C(OCc2ccc3ccccc3c2)C1O (stereo not drawn) [Compound 232]	+ (Indicates inhibition greater than . . . 50%)
COCC1OC(OCc2ccccc2)C(NC(=O)CCCN)C(OCc2ccc(-c3ccccc3)cc2)C1O (stereo not drawn) [Compound 229]	+ (Indicates inhibition greater than . . . 50%)
COCC1OC(OCc2ccccc2)C(NC(=O)CCN)C(OCc2ccc(Cl)cc2)C1O (stereo not drawn) [Compound 221]	+ (Indicates inhibition greater than . . . 50%)
COCC1OC(OCCc2ccccc2)C(NC(=O)CCCNC(=N)N)C(OCc2ccc3ccccc3c2)C1O (stereo not drawn) [Compound 283]	+ (Indicates inhibition greater than . . . 50%)
COCC1OC(OCc2ccccc2)C(NC(=O)CN)C(OCc2ccc(-c3ccccc3)cc2)C1O (stereo not drawn) [Compound 225]	+ (Indicates inhibition greater than . . . 50%)
COCC1OC(OCc2ccccc2)C(NC(=O)CN)C(OCc2ccc(Cl)cc2)C1O (stereo not drawn) [Compound 219]	+ (Indicates inhibition greater than . . . 50%)
COCC1OC(OCCc2ccccc2)C(NC(=O)CCCN)C(OCc2ccc(-c3ccccc3)cc2)C1O (stereo not drawn) [Compound 276]	+ (Indicates inhibition greater than . . . 50%)
COCC1OC(OCc2ccc3ccccc3c2)C(NC(=O)CNC(=N)N)C(OCc2ccc(-c3ccccc3)cc2)C1O (stereo not drawn) [Compound 297]	+ (Indicates inhibition greater than . . . 50%)
COCC1OC(OCc2ccccc2)C(NC(=O)CCNC(=N)N)C(OCc2ccc3ccccc3c2)C1O (stereo not drawn) [Compound 234]	+ (Indicates inhibition greater than . . . 50%)
COCC1OC(OCCc2ccccc2)C(NC(=O)CNC(=N)N)C(OCc2ccc(Cl)cc2)C1O (stereo not drawn) [Compound 267]	+ (Indicates inhibition greater than . . . 50%)
